As a reminder, the TGI is the concentration giving total growth inhibition. Read a high TGI as lower sensitivity of the cells. Broadly, the GI50 is the concentration at which growth is held to half of that of the control.

This is an account of results in PubChem BioAssay (NCI).

“And” between values parts separate entries of the source, which are not always exact repeats. Equal entries are not always repeated.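 1) Cells in 96-well plates. 2) Compound, 48 h, 5 concentrations. 3) Linear interpolation between surrounding doses. 4) Unreached endpoint = highest concentration. GI50 marks 50% less growth. TGI: concentration producing complete growth inhibition.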

Common to all, as to experiment: DTP human tumour cell line panel, 48 h
The subject of assay [1] is HCT-15 colon.
The subject of assay [2] is SK-MEL-5 melanoma.
Assay [3] relates to NCI-H522 lung.
Assay [4] deals with OVCAR-8 ovarian.
Assay [5] relates to NCI/ADR-RES ovarian.
Assay [6] deals with SK-MEL-28 melanoma.
Assay [7] deals with M14 melanoma.
The subject of assay [8] is SK-OV-3 ovarian.
The test system of assay [9] is HL-60(TB) leukemia.
Assay [10] has as its system HS 578T breast.

In the case of `CC(=O)Oc1ccc(-c2c(OC(C)=O)c(OC(C)=O)c(-c3ccc(OC(C)=O)c(OC(C)=O)c3)c(OC(C)=O)c2OC(C)=O)cc1`, the TGI in assay [1] is 37.3 µM; in assay [2], 25.5 µM; in [3], 18.4 µM; in assay [4], 28.2 µM; in assay [5], greater than 100 µM; in assay [6], 28.4 µM. In addition, the TGI in [7] was 33.7 µM; in [8], 69 µM; in assay [9], 43.7 µM.
`CC(=O)N/N=C1\NN(C(C)=O)C2(S1)C(=O)Nc1ccccc12` (stereo not drawn): the TGI in [1], in [2], in assay [3], in [4], in assay [5] and in assay [6] was greater than 100 µM each time. For the same molecule, the TGI in assay [7], in [8] and in assay [9] was greater than 100 µM throughout.
On to `CCCCCCCCCC[C@@H](O)[C@H]1CC[C@@H]([C@H]2CC[C@H]([C@H](O)CCCCCCCCCC[C@@H]3CC(CC(C)=O)C(=O)O3)O2)O1` (stereo partly drawn), for which the GI50 was 20.9 µM in assay [1]; 22.7 µM in [4]; 11.9 µM in assay [5]; 29 µM in [6]; 20000 nM in assay [7]. In addition, the TGI is greater than 100 µM in assay [1]; 3.78 µM in assay [10]; 16.2 µM in assay [2]; 37.1 µM in [3]; greater than 100 µM in assay [4]; greater than 100 µM in assay [6]. The molecule further displayed a TGI in [7] of 50.4 µM.
On to `C=C1C(=O)OC2C1CC1OC2C(C)CCC/C(C)=C\CCC1(C)O` (stereo not drawn), for which the TGI turned out to be 63.6 µM in assay [1]; 12.4 µM in assay [2]; 26.2 µM in [3]; 31.4 µM in assay [4]; 55.2 µM in [5]; 43.1 µM in assay [6]. In addition, the TGI in assay [8] came out at 119 µM; in assay [9] it was 21.2 µM.
Regarding `CC1(C)CN=C(c2ccc3ccccc3c2O)N1`, the TGI in [1], in [10], in [2], in assay [5], in assay [6] and in [7] was greater than 100 µM each time. This molecule showed a concentration for total growth inhibition (TGI) in assay [9] greater than 100 µM.
On to `CCn1c2ccccc2c2cc(NC(=O)c3c(C)[nH]c(=O)[nH]c3=S)ccc21`, for which the TGI in [1], in [10], in assay [2], in assay [4], in [5] and in assay [6] was greater than 100 µM in each case. The TGI in [7] is 82.2 µM; in assay [8] it was greater than 100 µM; in [9], greater than 100 µM.
`CCCS(=O)OC1C(C2COC(C)(C)O2)OC2OC(C)(C)OC21` (stereo not drawn): the TGI in [1] is 41.6 µM; in [10] it was greater than 100 µM; in assay [2], 27.7 µM; in assay [3], 25.9 µM; in assay [4], 29.3 µM; in [5] it was 46.1 µM. Besides, the results for the TGI in assay [6], in [7] and in assay [8] were 32.7 µM, 37.8 µM and greater than 86.8 µM, respectively.
As to `CN1C(C(=O)Nc2ccccn2)=C(O)c2ccccc2S1(=O)=O`, the TGI in assay [1], in [2], in [3], in assay [4], in assay [5] and in assay [6] was greater than 100 µM in each case. The total growth inhibition concentration (TGI) in assay [7], in assay [8] and in assay [9] was greater than 100 µM in each case.
With `CCCCC[C@@H]1OC(=O)[C@@]2(CC3c4ccccc4C2c2ccccc23)[C@H]1C(=O)OC`, the TGI in assay [1] is greater than 100 µM; in assay [10], greater than 100 µM; in assay [2], 39.2 µM; in assay [4], greater than 100 µM; in [5], greater than 100 µM; in assay [7], greater than 100 µM. In addition, the TGI is greater than 100 µM in [8] and 33.1 µM in [9].
In the case of `C[N+](C)(C)c1nc(N)nc2c1ncn2C1OC(CO)C(O)C1O` (stereo not drawn), the concentration for total growth inhibition (TGI) in assay [1], in assay [10], in [2], in assay [3], in assay [4] and in [5] was greater than 100 µM in each case. Further, the TGI in [6], in [7] and in assay [8] was greater than 100 µM throughout.
As for `Cc1ccc(N=Nc2cc(=O)[nH]c(=O)[nH]2)cc1C`, the TGI was 11.2 µM in assay [1]; 30.4 µM in assay [2]; 30.9 µM in assay [4]; greater than 100 µM in assay [5]; 34.3 µM in [6]; 41.1 µM in assay [7]. This molecule also returned a TGI in assay [9] of 7.18 µM.
For the molecule `O=C(c1ccccc1)c1ccc2c(c1)N=C(c1ccc(Cl)c(Cl)c1)CC(c1ccc3ccccc3c1)N2` (stereo not drawn), the TGI in assay [1], in assay [2], in assay [3], in assay [4], in assay [6] and in assay [7] was greater than 100 µM in each case. In addition, the TGI in [8] and in assay [9] was greater than 100 µM in each case.
For `O.O=[Se](=O)(O)O.[NH-]C1CCCCC1[NH-].[Pt+2]` (stereo not drawn), the GI50 in assay [1] is 8.39 µM; in [2], 7400 nM; in assay [3], 13.7 µM; in assay [4], 7.55 µM; in [5], 11.3 µM; in assay [6] it was 10.1 µM. Moreover, the figures for the GI50 in assay [8] and in assay [9] were 64.8 µM and 3220 nM, respectively. Also, the TGI in assay [1] was greater than 100 µM; in assay [2], 15.6 µM; in assay [3] it was greater than 59.4 µM; in [4] it was greater than 100 µM; in assay [5], greater than 100 µM; in assay [6], greater than 100 µM. Also, the results for the TGI in assay [8] and in assay [9] were greater than 100 µM and 33.8 µM, respectively.
Regarding `CC(C)=CCC/C(C)=C/CCC1(C)C2COC(=O)C21` (stereo not drawn), the TGI in assay [1] is greater than 100 µM; in assay [2], 91.7 µM; in [3], greater than 100 µM; in assay [6], greater than 100 µM; in assay [8] it was greater than 100 µM; in assay [9], 46.4 µM.
Consider `CC1Oc2c(c(O)cc3oc(=O)cc(-c4ccccc4)c23)C(=O)C1C` (stereo not drawn), for which the TGI in assay [1], in [2], in assay [3], in [4], in assay [6] and in [7] was greater than 100 µM each time. In addition, the TGI in [8] and in [9] was greater than 100 µM throughout.
Consider `Nc1ncnc2c(C3OC(CO)C(O)C3O)c[nH]c12` (stereo not drawn), for which the concentration for total growth inhibition (TGI) in assay [1] was 0.333 µM and 0.3 µM; in assay [3], 0.0601 µM and 0.0389 µM; in [4], 0.0845 µM and 0.771 µM; in assay [6], 0.51 µM and 0.734 µM; in assay [7], 0.336 µM and 0.225 µM. Also, the GI50 is 24.7 nM in [10], 18.7 nM in assay [2], 0.0452 µM in assay [6] and 0.721 nM in [9].
On to `O=C(O)C1(Cc2ccc3c(c2)CCC3)Cc2cc3c(cc2C1)CCC3`, for which the TGI in assay [1], in assay [10], in assay [2], in [4], in [6] and in assay [7] was greater than 100 µM in each case. The TGI in [8] and in assay [9] was greater than 100 µM in each case.
Turning to `Cn1cnc([N+](=O)[O-])c1Sc1nncc2[nH]cnc12`, the concentration for total growth inhibition (TGI) in [1], in assay [2], in assay [3], in [4], in assay [5] and in assay [6] was greater than 100 µM each time. Besides, the concentration for total growth inhibition (TGI) in [7], in assay [8] and in assay [9] was greater than 100 µM throughout.
With `O/N=C1/CCCCC1NO` (stereo not drawn), the TGI in [1], in assay [10], in assay [2], in assay [4], in [5] and in [6] was greater than 100 µM each time. Further, the TGI in assay [7], in [8] and in assay [9] was greater than 100 µM in each case.
Take `O=c1oc2ccccc2cc1-c1nc2ccccc2s1`: the TGI in assay [10] was 20.4 µM; in assay [2] it was greater than 75.1 µM; in assay [3] it was 21.5 µM; in assay [4], 20.4 µM; in assay [6] it was greater than 66 µM; in assay [7], greater than 47.6 µM. The TGI in assay [8] is 23.7 µM; in assay [9] it was greater than 100 µM.
Turning to `N#Cc1nc(Cc2cccs2)oc1N`, the TGI in assay [1], in assay [10], in assay [2], in [4], in [6] and in assay [7] was greater than 100 µM each time. Moreover, the TGI in assay [8] and in assay [9] was greater than 100 µM in each case.
`COc1cccc2c1C(=O)c1c(O)c3c(c(O)c1C2=O)C[C@](O)(C(=O)CO)CC3OC1CC(N)C(OC2CCCCO2)C(C)O1` (stereo partly drawn): the TGI in [1] amounted to 5.14 µM; in [2], 1.34 µM; in assay [3] it was 2.62 µM; in assay [4], 14 µM; in assay [5], 41.8 µM; in assay [6], 3.38 µM. Moreover, the TGI came to 8.28 µM in assay [8] and 0.294 µM in [9].
In the case of `CC(C)(C)OC(=O)N[C@@H](Cc1ccccc1)C(=O)N1CC[C@@H](C(=O)N2[C@H]3CC4CC[C@@]3(CS2(=O)=O)C4(C)C)N1`, the TGI in [1] is greater than 100 µM; in assay [10], greater than 100 µM; in [2], 75 µM; in [4], greater than 100 µM; in assay [5], greater than 100 µM; in assay [6], greater than 100 µM. For the same molecule, the total growth inhibition concentration (TGI) in assay [7], in [8] and in [9] was greater than 100 µM throughout.
In the case of `Cc1ccc(Oc2cc(C)ccc2P(=O)(O)O)cc1`, the TGI in [1], in assay [10], in [2], in assay [3], in assay [4] and in [6] was greater than 100 µM in each case. Also, the TGI in [7], in [8] and in assay [9] was greater than 100 µM throughout.
In the case of `COc1ccc(/C(Cl)=C(\C=O)c2ccc(Cl)cc2)cc1`, the TGI in assay [1] was greater than 100 µM; in assay [2] it was 32.6 µM; in [3], 5.89 µM; in assay [4], 45.6 µM; in assay [7] it was greater than 100 µM; in [8] it was greater than 100 µM. In assay [9], this molecule registered a TGI of 16.6 µM.
`Brc1ccc2[nH]cc(-c3nc(-c4c[nH]c5ccncc45)cs3)c2c1`: the GI50 in [2] is 1610 nM; in assay [6], 1.73 µM; in assay [7], 1830 nM; in [8] it was 1.65 µM. The total growth inhibition concentration (TGI) in assay [2] came to 2.98 µM; in assay [6] it was 3.13 µM; in assay [7] it was 3.42 µM; in [8], 3.03 µM.
As for `O=c1c2cc(Cl)ccc2n2nnc3ccc(NCCNCCO)c1c32`, the concentration for total growth inhibition (TGI) in [1] was determined as 2.59 µM; in [2], 2.86 µM; in [3] it was 3.03 µM; in [4] it was 2.53 µM; in assay [6], 3.26 µM; in [7], 2.88 µM. In addition, the results for the TGI in assay [8] and in [9] were 6.26 µM and 9.77 µM, respectively.
On to `O=C1/C(=C/c2ccc(Cl)c(Cl)c2)CN(C(=O)CCN2CCOCC2)C/C1=C\c1ccc(Cl)c(Cl)c1`, for which the concentration for total growth inhibition (TGI) in assay [10] was greater than 10 µM. In assay [9], the GI50 is 362 nM and 277 nM; the TGI was 1.1 µM and 0.632 µM.
Take `CCC[CH2][Ge]([CH2]CCC)([CH2]CCC)[O]C(=O)CCl`: the GI50 was 0.546 µM in assay [1]; 305 nM in assay [2]; 0.214 µM in assay [3]; 5.19 µM in assay [4]; 11.5 µM in assay [6]; 1250 nM in assay [7]. In assay [8], the GI50 is 5.2 µM. The concentration for total growth inhibition (TGI) in assay [1] was 11.5 µM; in [2], 3.36 µM; in assay [4] it was 22 µM; in assay [6], 23.6 µM; in assay [7], 6.94 µM; in assay [8], 20.6 µM.
As for `CC(=O)Nc1oc(C)nc1C#N`, the TGI in [1], in [10], in assay [2], in [4], in [6] and in assay [7] was greater than 100 µM each time. Moreover, the TGI in assay [8] and in assay [9] was greater than 100 µM each time.
